Values quoted from earlier work, collected in patent US6514527B1, “Compositions comprising a mixture of bioflavonols” (Merck Patentgesellschaft, priority 1998, dated 2003).

Settings: orally administered

Row | time to reach peak | SMILES
1 | about 0.70 h | O=c1c(O[C@@H]2O[C@H](CO)[C@@H](O)[C@H](O)[C@H]2O)c(-c2ccc(O)c(O)c2)oc2cc(O)cc(O)c12 [isoquercetin]
2 | about 3 h | O=c1c(O)c(-c2ccc(O)c(O)c2)oc2cc(O)cc(O)c12 [quercetin]
